Reference: patent US10519143B2, “Substituted-indole-compounds as estrogen receptor down-regulators” (LUOXIN PHARMACEUTICAL (SHANGHAI) CO., LTD, priority 2016, dated 2019)

Each compound was assayed on MCF-7 cells (assay: MCF-7 cell proliferation inhibition assay). Conditions: Homo sapiens, MCF7, 144 h, read-out: anti-proliferation in MCF-7 cells (nM).
Assay type: cell-based
Protocol: Experimental Reagent: RPMI 1640 medium, fetal bovine serum, Promega CellTiter-Glo reagent. The cell line MCF-7 was purchased from The European Collection of Authenticated Cell Cultures (ECACC). Envision Multilabel Reader (PerkinElmer). Experimental Method: […] The cell plate was placed in a carbon dioxide incubator overnight. […] The cell plate was incubated in a carbon dioxide incubator for 6 days. Promega CellTiter-Glo reagent was added to the cell plate at 25 μL per well, cells were incubated for 10 minutes at room temperature to stabilize the luminescence signal, which was measured using PerkinElmer Envision Multilabel Reader. Data Analysis: […] (Model 205 in XLFIT5, iDBS)

Row | SMILES | IC50 [nM]
1 | CC/C(=C(/c1ccc(/C=C/C(=O)O)cc1)c1cc2ccccc2[nH]1)c1cc(Cl)sc1Cl [Compound I-17] | 8.29
2 | CC/C(=C(/c1ccc(/C=C/C(=O)O)cc1)c1cc2ccccc2[nH]1)c1ccsc1C#N [Compound I-18] | 22
3 | CC/C(=C(/c1ccc(/C=C/C(=O)O)cc1)c1cc2ccccc2[nH]1)c1c(C)cccc1Cl [Compound I-29] | 30
4 | CC/C(=C(/c1ccc(/C=C/C(=O)O)cc1)c1cc2ccccc2[nH]1)c1ccc(F)cc1F [Compound I-45] | 103
5 | CC/C(=C(\c1cc2ccccc2[nH]1)c1c(F)cc(/C=C/C(=O)O)cc1F)c1ccc(F)cc1Cl [Compound I-57] | 32
6 | CC/C(=C(/c1ccc(OCCN2CC(CF)C2)cc1)c1cc2ccccc2[nH]1)c1ccc(F)cc1Cl [II-1] | 4.57

Same assay, conditions: Homo sapiens, MCF7, 144 h; MCF-7 cells, 6 days incubation, CellTiter-Glo; read-out: anti-proliferation in MCF-7 cells

Row | SMILES | IC50 [nM]
7 | CC/C(=C(/c1ccc(/C=C/C(=O)O)cc1)c1cc2ccccc2[nH]1)c1cccc(C(F)(F)F)c1 [Compound I-4] | 325
8 | CC/C(=C(/c1ccc(/C=C/C(=O)O)cc1)c1cc2ccccc2[nH]1)c1cccs1 [Compound I-6] | 321
9 | CC/C(=C(/c1ccc(/C=C/C(=O)O)cc1)c1[nH]c2ccccc2c1Br)c1ccc(F)cc1Cl [Compound I-7] | 9.52
10 | CC/C(=C(/c1ccc(/C=C/C(=O)O)cc1)c1cc2ccc(F)cc2[nH]1)c1ccc(F)cc1Cl [Compound I-9] | 167
11 | CC/C(=C(/c1ccc(/C=C/C(=O)O)cc1)c1[nH]c2ccccc2c1Cl)c1ccccc1C(F)(F)F [Compound I-10] | 13
12 | CC/C(=C(/c1ccc(/C=C/C(=O)O)cc1)c1[nH]c2ccccc2c1Br)c1ccccc1C(F)(F)F [Compound I-11] | 8.53
13 | CC/C(=C(/c1ccc(/C=C/C(=O)O)cc1)c1cc2ccccc2[nH]1)c1ccc(F)cc1C(F)(F)F [Compound I-12] | 13
14 | CC/C(=C(/c1ccc(/C=C/C(=O)O)cc1)c1cc2ccccc2[nH]1)c1ccc(C(F)(F)F)cc1Cl [Compound I-13] | 27
15 | CC/C(=C(/c1ccc(/C=C/C(=O)O)cc1)c1cc2ccccc2[nH]1)c1ccc(Cl)cc1C(F)(F)F [Compound I-14] | 4.11
16 | CC/C(=C(/c1ccc(/C=C/C(=O)O)cc1)c1[nH]c2ccccc2c1Cl)c1ccsc1C#N [Compound I-15] | 7.56
17 | CC/C(=C(/c1ccc(/C=C/C(=O)O)cc1)c1[nH]c2ccccc2c1C)c1ccc(F)cc1Cl [Compound I-19] | 4.78
18 | CC/C(=C(/c1ccc(/C=C/C(=O)O)cc1)c1cc2ccccc2[nH]1)c1ccc(Cl)cc1C#N [Compound I-21] | 14
19 | CC/C(=C(/c1ccc(/C=C/C(=O)O)cc1)c1[nH]c2ccccc2c1Cl)c1ccc(Cl)cc1C#N [Compound I-22] | 0.86
20 | CC/C(=C(/c1ccc(/C=C/C(=O)O)cc1)c1[nH]c2ccccc2c1Cl)c1ccc(Cl)c(C)c1 [Compound I-28] | 69
21 | CC/C(=C(/c1ccc(/C=C/C(=O)O)cc1)c1[nH]c2ccccc2c1Cl)c1ccc2c(c1)OCCO2 [Compound I-31] | 3.66
22 | CC/C(=C(/c1ccc(/C=C/C(=O)O)cc1)c1cc2ccccc2[nH]1)c1ccc(OC)cc1 [Compound I-32] | 61

Row | SMILES | IC50 [nM]
23 | CC/C(=C(/c1ccc(/C=C/C(=O)O)cc1)c1[nH]c2ccccc2c1Cl)c1ccc(OC)cc1 [Compound I-33] | 2.86
24 | CC/C(=C(/c1ccc(/C=C/C(=O)O)cc1)c1cc2ccccc2[nH]1)c1ccc(C#N)cc1Cl [Compound I-34] | 49
25 | CC/C(=C(/c1ccc(/C=C/C(=O)O)cc1)c1[nH]c2ccccc2c1Cl)c1cc(Cl)sc1Cl [Compound I-35] | 20
26 | CC/C(=C(/c1ccc(/C=C/C(=O)O)cc1)c1cc2ccccc2[nH]1)c1ccc(Cl)cc1Cl [Compound I-37] | 11
27 | CC/C(=C(/c1ccc(/C=C/C(=O)O)cc1)c1[nH]c2ccccc2c1F)c1ccc(F)cc1Cl [Compound I-40] | 2.31
28 | CC/C(=C(/c1ccc(/C=C/C(=O)O)cc1)c1[nH]c2ccccc2c1C#N)c1ccc(OC)cc1Cl [Compound I-42] | 0.77
29 | CC/C(=C(/c1ccc(/C=C/C(=O)O)cc1)c1[nH]c2ccccc2c1Cl)c1ccc(OC)cc1C#N [Compound I-43] | 1.56
30 | CC/C(=C(/c1ccc(/C=C/C(=O)O)cc1)c1[nH]c2ccccc2c1Cl)c1ccc(Cl)cc1C(F)(F)F [Compound I-44] | 5.84
31 | CC/C(=C(/c1ccc(/C=C/C(N)=O)cc1)c1cc2ccccc2[nH]1)c1ccc(Cl)cc1C(F)(F)F [Compound I-47] | 4.27
32 | CC/C(=C(/c1ccc(/C=C/C(=O)O)cc1)c1cc2ccccc2[nH]1)c1cccc(F)c1C#N [Compound I-52] | 40
33 | CC/C(=C(/c1ccc(/C=C/C(=O)O)cc1)c1[nH]c2ccccc2c1C#N)c1ccc(Cl)cc1Cl [Compound I-53] | 4.35
34 | CC/C(=C(/c1ccc(/C=C/C(=O)O)cc1)c1[nH]c2ccccc2c1Cl)c1ccc(Cl)nc1C#N [Compound I-55] | 2.42
35 | CC/C(=C(/c1ccc(OCCN2CC(CF)C2)cc1)c1cc2cc(F)ccc2[nH]1)c1ccc(F)cc1Cl [II-3] | 6.77
36 | CC/C(=C(/c1ccc(OCCN2CC(CF)C2)cc1)c1[nH]c2ccccc2c1Cl)c1ccc(F)cc1Cl [II-5] | 7.23
37 | CC/C(=C(/c1ccc(OCCN2CC(CF)C2)cc1)c1cc2ccccc2[nH]1)c1ccccc1Cl [II-6] | 2.46

Continued, values first:

Row | IC50 [nM] | SMILES
38 | 393 | CC/C(=C(/c1ccc(/C=C/C(=O)O)cc1)c1cc2cnccc2[nH]1)c1ccc(F)cc1Cl [Compound I-46]
39 | 282 | CC/C(=C(/c1ccc(/C=C/C(=O)O)cc1)c1cc2ccccc2[nH]1)c1cccc(OC(F)(F)F)c1 [Compound I-2]
40 | 206 | CC/C(=C(/c1ccc(/C=C/C(=O)O)cc1)c1cc2ccccc2[nH]1)c1ccccc1OC(F)(F)F [Compound I-3]
41 | 51 | CC/C(=C(/c1ccc(OCCN2CC(CC#N)C2)cc1)c1cc2ccccc2[nH]1)c1ccc(Cl)cc1C(F)(F)F [II-9]
42 | 48 | CC/C(=C(/c1ccc(/C=C/C(=O)O)cc1)c1cc2ccccc2[nH]1)c1ccc2c(c1)OCCO2 [Compound I-30]
43 | 42 | CC/C(=C(/c1ccc(/C=C/C(=O)O)cc1)c1cc2ccccc2[nH]1)c1ccccc1C#N [Compound I-49]
44 | 35 | CC/C(=C(/c1ccc(/C=C/C(=O)O)cc1)c1[nH]c2ccccc2c1Cl)c1csc(C)c1 [Compound I-56]
45 | 33 | CC/C(=C(/c1ccc(/C=C/C(=O)O)cc1)c1cc2ccccc2[nH]1)c1ccccc1C [Compound I-50]
46 | 23 | CC/C(=C(/c1ccc(/C=C/C(=O)O)cc1)c1[nH]c2ccccc2c1C)c1cccc(C)c1 [Compound I-54]
47 | 21.5 | CC/C(=C(/c1ccc(/C=C/C(=O)O)cc1)c1[nH]c2ccccc2c1Cl)c1ccc(Cl)cc1 [Compound I-24]
48 | 9.24 | CC/C(=C(/c1ccc(/C=C/C(=O)O)cc1)c1cc2ccccc2[nH]1)c1ccccc1Cl [Compound I-51]
49 | 8.36 | CC(C)C/C(=C(/c1ccc(/C=C/C(=O)O)cc1)c1cc2ccccc2[nH]1)c1ccc(F)cc1Cl [Compound I-27]
50 | 8.04 | CC/C(=C(/c1ccc(/C=C/C(=O)O)cc1)c1cc2ccccc2[nH]1)c1ccccc1C(F)(F)F [Compound I-5]
51 | 7.75 | CC/C(=C(/c1ccc(OCCN2CC(CF)C2)cc1)c1cc2ccc(F)cc2[nH]1)c1ccc(F)cc1Cl [II-2]
52 | 7.43 | CC/C(=C(/c1ccc(OCCN2CC(CC#N)C2)cc1)c1cc2ccccc2[nH]1)c1ccccc1C#N [II-11]
53 | 6.86 | CC/C(=C(\c1cc2ccccc2[nH]1)c1c(F)cc(OCCN2CC(CF)C2)cc1F)c1ccc(F)cc1Cl [II-4]
54 | 6.84 | CC/C(=C(/c1ccc(/C=C/C(=O)O)cc1)c1[nH]c2ccccc2c1C#N)c1cc(Cl)sc1Cl [Compound I-36]
55 | 5.59 | CC/C(=C(/c1ccc(/C=C/C(=O)O)cc1)c1[nH]c2ccccc2c1Cl)c1ccc(F)cc1Cl [Compound I-8]
56 | 5 | CC/C(=C(/c1ccc(OCCN2CC(CC#N)C2)cc1)c1[nH]c2ccccc2c1Cl)c1ccc(F)cc1Cl [II-8]
57 | 4.88 | CC/C(=C(/c1ccc(/C=C/C(=O)NS(C)(=O)=O)cc1)c1cc2ccccc2[nH]1)c1ccc(Cl)cc1C(F)(F)F [Compound I-48]
58 | 4.84 | CC/C(=C(/c1ccc(/C=C/C(=O)O)cc1)c1[nH]c2ccccc2c1C#N)c1ccc(F)cc1Cl [Compound I-23]
59 | 3.92 | CC/C(=C(/c1ccc(OCCN2CC(CC#N)C2)cc1)c1cc2ccccc2[nH]1)c1ccccc1Cl [II-10]
60 | 3.91 | CC/C(=C(/c1ccc(/C=C/C(=O)O)cc1)c1cc2ccccc2[nH]1)c1ccc(OC)cc1Cl [Compound I-41]
61 | 2.61 | CC/C(=C(/c1ccc(OCCN2CC(CF)C2)cc1)c1cc2ccccc2[nH]1)c1ccccc1C#N [II-7]
62 | 1.56 | CC/C(=C(/c1ccc(OCCN2CC(CC#N)C2)cc1)c1[nH]c2ccccc2c1Cl)c1ccc(Cl)cc1C#N [II-12]
